In the experiment the test system is P. falciparum 3D7 growth, pLDH absorbance. Kind of experiment: P. falciparum 3D7 growth inhibition, dose response, strain 3D7 (AID 2305).

Each structure is given as a SMILES string.

Experimental findings from PubChem BioAssay AID2305 (GlaxoSmithKline (GSK), 2010) are described below.

What is called IC50 is the point on the concentration scale where inhibition reaches its midpoint.

For the compound `Fc1ccc2[nH]c3c(NCCCN4CCOCC4)ncnc3c2c1`, the IC50 came out at 710 nM. The result for `CC(=O)Nc1cccc(C(=O)Nc2ccc(-c3cccc(-c4nc5ccc(C(F)(F)F)cc5[nH]4)c3)cc2)c1` reads 150 nM; that for `O=C(Nc1ccc(OC2CCN(Cc3ccc(F)cc3)C2)c(Cl)c1)c1ccccc1` (centres undefined), 790 nM. For `O=C(c1ccco1)N1CCN(c2ccc([N+](=O)[O-])c(NC3CC3)c2)CC1` the value was 750 nM.

The compound `CCN(CC)CCNc1ccnc2ccc3ccccc3c12` displayed an IC50 of 220 nM. With `Cc1cnccc1/C=C/c1cccc(OCCN2CCc3ccc(S(C)(=O)=O)cc3CC2)c1`, the IC50 was 270 nM.

On to `O=C(Cc1cn(-c2ccccc2)nc1-c1ccc(Cl)cc1)Nc1nccs1`, for which the IC50 stood at 1200 nM. For `O=C(NCCCCN1CCC(O)(c2ccc(Cl)cc2)CC1)c1ccc(Br)cc1` the value was 1250 nM; for `c1ccc(C(c2cccs2)N2CCN(Cc3ccc(OCCCN4CCCCC4)cc3)CC2)cc1` (centres undefined), 1230 nM. Compound `Cc1cccc2[nH]c(-c3cccc(-c4cccc(CNCCc5cccn5C)c4)c3)nc12` returned an IC50 of 730 nM. The result for `FC(F)(F)c1ccc(N2CCCN(Cc3cccc(-c4ccccc4CNCc4ccc5c(c4)OCO5)c3)CC2)nc1` reads 1190 nM; that for `CN(C)Cc1cccc(-c2cnc(N)c(-c3nc4ccc(S(C)(=O)=O)cc4[nH]3)c2)c1`, 890 nM; that for `COc1ccc2nccc([C@@H](O)CN3CCC(NC(=O)c4ccc(C5(C(F)(F)F)N=N5)cc4)CC3)c2c1`, 930 nM. The result for `Cc1cccc2[nH]c(-c3ccc(-c4cccc(NC(=O)COc5ccccc5C(N)=O)c4)s3)nc12` reads 730 nM; that for `CCNc1cc(C(=O)N[C@@H](Cc2cccc(Cl)c2)[C@H](O)CNC(C)CCCC(C)C)cc(N2CCCCS2(=O)=O)c1` (some centres undefined), 290 nM; that for `CCNc1cc(C(=O)N[C@@H](Cc2ccccc2)[C@H](O)CNC2CCSCC2)cc(N2CCCC2=O)c1`, 130 nM. For `COc1ccc(NC(=O)CCNc2cc(C)nc(NCCc3ccc(F)cc3)n2)cc1` the value was 850 nM; for `Cc1cccc2[nH]c(-c3cccc(-c4cccc(NC(=O)Nc5ccc(F)c(F)c5F)c4)c3)nc12`, 110 nM; for `CN(C)c1ccc(C2c3nc[nH]c3CCN2C(=O)Nc2cccc([N+](=O)[O-])c2)cc1` (centres undefined), 970 nM. For the compound `CC(=O)Nc1ccc(CN2CCC(NC(=O)c3ccc(-c4cccc(C(F)(F)F)c4)s3)CC2)cc1`, the IC50 was 890 nM.

`Cc1cc(N2CCCCC2)nc2ccc(NC(=O)c3cncc(Br)c3)cc12` displayed an IC50 of 720 nM. For `CN(C)CCN(C)Cc1cccc(-c2ccc3c(Nc4cc(O)c(Cl)cc4F)ccnc3c2)c1` the value was 240 nM; for `COc1ccccc1Cc1nc2ccccc2nc1SCC(=O)Nc1cccc(C(F)(F)F)c1`, 500 nM.

For the compound `COc1ccc2nccc([C@@H](O)CN3CCC(NCc4cc5cc([N+](=O)[O-])ccc5[nH]4)CC3)c2c1`, the IC50 came out at 120 nM.

With `CC(C)Oc1cc(-c2ccc(S(C)(=O)=O)cc2)nc(N(Cc2cccc(F)c2F)Cc2cccc(F)c2F)n1`, the IC50 amounted to 120 nM. In other words, the sub-micromolar range. For `O=C1C[C@@H]([S@@](=O)Cc2nccs2)N1CCOCCCCCCc1ccc(Cl)cc1` the value was 1020 nM; for `O=C(NCCN1CCCC1)c1ccc(-c2ccc(-c3nc4ccc(C(F)(F)F)cc4[nH]3)s2)cc1`, 750 nM. The result for `CCNc1cc(C(=O)N[C@@H](Cc2ccccc2)[C@H](O)CNCCCc2ccc(OC)cc2)cc(N2CCCC2=O)c1` reads 560 nM; that for `O=S(=O)(c1ccc2cc[nH]c2c1)N1CCC[C@@H]1CCN1CCC(c2c[nH]c3cnccc23)CC1`, 1020 nM; that for `c1ccc(Oc2ccc(Nc3ccnc(Nc4ccc5cn[nH]c5c4)n3)cc2)cc1`, 730 nM. For `O=C(NC1CCN(CCN2CCC(c3ccccc3C(F)(F)F)CC2)CC1)c1ccc(-c2ccc(Cl)cc2)cc1` the value was 710 nM; for `COc1cc(C(=O)N2COCC(CCCN3CCC(N4CCCC4)CC3)(c3ccc(Cl)c(Cl)c3)C2)cc(OC)c1OC` (centres undefined), 780 nM; for `COc1ccc(C(=O)N2CCN(c3ccc([N+](=O)[O-])c(NC4CC4)c3)CC2)cc1Br`, 800 nM. On to `COc1cccc2cc(C(=O)N[C@@H](CC(C)C)C(=O)N[C@H](/C=N/NC(=O)OC(C)(C)C)CC(C)C)oc12`, for which the IC50 was 900 nM. The result for `Cc1cc(N[C@@H](Cc2ccccc2)C(=O)NCCc2ccccc2)nc(NCCOc2ccccc2)n1` reads 1000 nM. For `Cc1cccc(NC(=O)c2ccc(C(=O)NC3CCN(CC4CCCCC4)C3)cc2)c1` (centres undefined) the value was 920 nM. The result for `COc1cc(-c2nc(-c3ccc4c(c3)CCC4=NO)c(-c3ccncc3)[nH]2)ccc1OCCN1CCN(C)CC1` reads 760 nM. `COc1cc(CNCCCNc2nc3ccsc3c(=O)[nH]2)c2[nH]cc(Cl)c2c1` returned an IC50 of 890 nM.

As for `CCc1ccccc1N=C1c2c(cccc2[N+](=O)[O-])C(=O)C1C(C)=O` (centres undefined), the IC50 came out at 90 nM. The result for `CCCCCN1CCC(NS(=O)(=O)c2cccc(C(=O)Nc3cccc(C(F)(F)F)c3)c2)C1` (centres undefined) reads 830 nM; that for `CCn1cc(CN2CCCC(C(=O)Nc3ccc(-c4nc5ccccc5[nH]4)cc3)C2)cn1` (centres undefined), 930 nM; that for `COc1ccc(Nc2nccc(N3CCC(NC(=O)c4cc5ccccc5s4)C3)n2)cc1` (centres undefined), 760 nM.

The compound `CCN(CC)CCN(Cc1ccc(-c2ccc(C(F)(F)F)cc2)cc1)C(=O)Cn1c(CCc2ccc(F)c(F)c2)cc(=O)c2ccccc21` came in with an IC50 of 890 nM. The IC50 values of the last two compounds are within 1.5-fold of each other. The result for `Cc1cccc2[nH]c(-c3cccc(-c4cccc(NC(=O)CC5NC(=O)c6ccccc65)c4)c3)nc12` (centres undefined) reads 1030 nM.

`COc1ccc2nccc([C@@H](O)CN3CCC(NC(=O)/C=C/c4cccc(C)c4)CC3)c2c1` gave an IC50 of 1250 nM.

With `Cc1noc(C)c1-c1ccc2c(Nc3ccccc3C(C)(C)C)c(C(=O)NCc3cccc4ccccc34)cnc2c1`, the IC50 was 940 nM. The IC50 values of the last two compounds are within 1.5-fold of each other. The result for `Cc1cc(C(=O)CN2C(=O)NC3(CCOc4ccccc43)C2=O)c(C)n1Cc1ccco1` (centres undefined) reads 610 nM. `CC(C)CCNCc1c(O)ccc2ccccc12` registered an IC50 of 1670 nM. The result for `O=C(Nc1ccc(-c2cccc(-c3nc4ccccc4[nH]3)c2)cc1)Nc1ccc(F)c(F)c1F` reads 180 nM; that for `O=C(Nc1ccc(OC2CCN(Cc3ccco3)C2)c(Cl)c1)c1ccc2ncccc2c1` (centres undefined), 1080 nM; that for `COc1cc(NC(=O)Nc2ccc([N+](=O)[O-])cc2OC)c(OC)cc1Cl`, 1470 nM. The result for `CC(C)Cc1nc(N2CCOCC2)c2nnn(Cc3ccccc3)c2n1` reads 510 nM; that for `NC(=O)c1cccc(CNC(=O)NC[C@H]2CN(Cc3ccc(Cl)c(Cl)c3)CCO2)c1`, 590 nM; that for `Cc1cc(O)c2c3c1C(=O)C=C1C3c3c(c(O)cc(O)c3C(=O)C1(C)C)C2=O` (centres undefined), 1680 nM. `C=C[C@]1(C)C[C@@H](OC(=O)c2n[nH]c3ccccc3c2=O)[C@]2(C)[C@H](C)CC[C@]3(CCC(=O)[C@H]32)[C@@H](C)[C@@H]1O` had an IC50 of 670 nM. In turn, `O=C(Nc1cccc(-c2nn3ccccc3c2-c2ccnc(Nc3cccc(N4CCCC4=O)c3)n2)c1)c1cc(F)ccc1F` gave an IC50 of 210 nM. This IC50 lies about 3.2-fold lower than the previous one.

`Cc1cc(C2CCN(CCCCNC(=O)c3ccc(NC(=O)c4ccc(Cl)cc4)cc3)CC2)c(C)cc1OCCN(C)C` came in with an IC50 of 770 nM.

The compound `O=C(/C=C/c1ccc(Cl)c(Cl)c1)NCCCCCN1CCC(CCNC(=O)/C=C/c2ccc(Cl)c(Cl)c2)CC1` displayed an IC50 of 560 nM. The result for `CCCCNc1cc(NCCCC)c2c(n1)[nH]c1ccccc12` reads 570 nM.
